For one assay, the target named is p38 MAPKα (Homo sapiens (Human), UniProt Q16539). Nature of the assay: p38 MAPKα enzyme inhibition (FRET, Z-LYTE; Method 2). In kind it is biochemical. As for the experimental part:
(§1) The enzyme inhibitory activities of compounds disclosed herein are determined by FRET using synthetic peptides labelled with both donor and acceptor fluorophores (Z-LYTE, Invitrogen Ltd., Paisley, UK).
The inhibitory activities of test compounds against the p38 MAPKα isoform (MAPK14: Invitrogen), are evaluated indirectly by determining the level of activation/phosphorylation of the down-stream molecule, MAPKAP-K2. The p38 MAPKα protein (80 ng/mL, 2.5 μL) is mixed with the test compound (2.5 μL of either 4 μg/mL, 0.4 μg/mL, 0.04 μg/mL or 0.004 μg/mL) for 2 hr at RT. […] The mixture is incubated for 1 hr at RT. Development reagent (protease, 5 μL) is added for 1 hr prior to detection in a fluorescence microplate reader (Varioskan® Flash, ThermoFisher Scientific).
Method 2 This method follows the same steps as Method 1 above, but utilises a higher concentration of the p38 MAPKα protein (2.5 μL of 200 ng/mL protein instead of 2.5 μL of 80 ng/mL protein) for mixing with the test compound.
(§2) In all cases, the site-specific protease cleaves non-phosphorylated peptide only and eliminates the FRET signal. Phosphorylation levels of each reaction are calculated using the ratio of coumarin emission (donor) over fluorescein emission (acceptor), for which high ratios indicate high phosphorylation and low ratios indicate low phosphorylation levels. The percentage inhibition of each reaction is calculated relative to non-inhibited control and the 50% inhibitory concentration (IC50 value) is then calculated from the concentration-response curve.

The next assay concerns the target c-Src (Homo sapiens (Human), UniProt P12931). Kind of assay: c-Src enzyme inhibition (FRET, Z-LYTE). In kind it is biochemical. As for the experimental part: as §1
(§3) The inhibitory activities of compounds of the invention against c-Src and Syk enzymes (Invitrogen), are evaluated in a similar fashion to that described hereinabove. The relevant enzyme (3000 ng/mL or 2000 ng/mL respectively, 2.5 μL) is incubated with the test compound (either 4 μg/mL, 0.4 μg/mL, 0.04 μg/mL, or 0.004 μg/mL, 2.5 μL each) for 2 hr at RT. The FRET peptides (8 μM. 2.5 μL), and appropriate ATP solutions (2.5 μL, 800 μM for c-Src, and 60 μM ATP for Syk) are then added to the enzymes/compound mixtures and incubated for 1 hr. Development reagent (protease, 5 μL) is added for 1 hr prior to detection in a fluorescence microplate reader (Varioskan® Flash, ThermoFisher Scientific).
as §2

The next assay concerns the target Syk (Homo sapiens (Human), UniProt P43405). Kind of assay: Syk enzyme inhibition (FRET, Z-LYTE). In kind it is biochemical. As for the experimental part:
as §1, §3, §2

The next assay has as its target GSK3α (Homo sapiens (Human), UniProt P49840). Kind of assay: GSK 3α enzyme inhibition (FRET, Z-LYTE; Method 2). In kind it is biochemical. The protocol: as §1
The inhibitory activities of compounds of the invention against the GSK 3α enzyme isoform (Invitrogen), are evaluated by determining the level of activation/phosphorylation of the target peptide. The GSK3-α protein (500 ng/mL, 2.5 μL) is mixed with the test compound (2.5 μL at either 4 μg/mL, 0.4 μg/mL, 0.04 μg/mL, or 0.004 μg/mL) for 2 hr at RT. The FRET peptide (8 μM, 2.5 μL), which is a phosphorylation target for GSK3α, and ATP (40 μM, 2.5 μL) are then added to the enzyme/compound mixture and the resulting mixture incubated for 1 hr. Development reagent (protease, 5 μL) is added for 1 hr prior to detection in a fluorescence microplate reader (Varioskan® Flash, ThermoFisher Scientific).
as §2
This method follows the same steps as Method 1 above, but utilises a shorter period of mixing of the test compound (105 minutes instead of 2 hours) with the GSK3-α protein.

For assay [1], the system named is PBMCs. Kind of assay: LPS-induced TNFα/IL-8 release in PBMC cells. In kind it is cell-based. The following applies: Homo sapiens, LPS-stimulated PBMCs, IL-8, read-out: IC50 Values for Inhibition of Cytokine Release, PBMCs IL-8. The protocol:
Peripheral blood mononuclear cells (PBMCs) from healthy subjects are separated from whole blood using a density gradient (Lymphoprep, Axis-Shield Healthcare). The PBMCs are seeded in 96 well plates and treated with compounds at the desired concentration for 2 hours before addition of 1 ng/mL LPS (Escherichia Coli 0111:B4 from Sigma Aldrich) for 24 hours under normal tissue culture conditions (37° C., 5% CO2). The supernatant is harvested for determination of IL-8 and TNFα concentrations by sandwich ELISA (Duo-set, R&D systems) and read on the fluorescence microplate reader (Varioskan® Flash, ThermoFisher Scientific). The concentration at 50% inhibition (IC50) of IL-8 and TNFα production is calculated from the dose response curve.

In assay [2] the test system is PBMCs. Nature of the assay: IL-2 and IFN gamma release in CD3/CD28 stimulated PBMC cells. The assay is classed as cell-based. As to conditions: Homo sapiens. The protocol: PBMCs from healthy subjects are separated from whole blood using a density gradient (Lymphoprep, Axis-Shield Healthcare). Cells are added to a 96 well plate pre-coated with a mixture of CD3/[…] monoclonal antibodies (0.3 μg/mL eBioscience and 3 μg/mL BD Pharmingen respectively). Compound at the desired concentration is then added to the wells and the plate left for 3 days under normal tissue culture conditions. Supernatants are harvested and IL-2 and IFN gamma release determined by Sandwich ELISA (Duo-set, R&D System). The IC50 is determined from the dose response curve.

Where [3] appears, read: IL-2, read-out: IC50 Values for Inhibition of Cytokine Release, PBMCs IL-2.

Sequence of GSK3α (P49840 whole entry, canonical isoform): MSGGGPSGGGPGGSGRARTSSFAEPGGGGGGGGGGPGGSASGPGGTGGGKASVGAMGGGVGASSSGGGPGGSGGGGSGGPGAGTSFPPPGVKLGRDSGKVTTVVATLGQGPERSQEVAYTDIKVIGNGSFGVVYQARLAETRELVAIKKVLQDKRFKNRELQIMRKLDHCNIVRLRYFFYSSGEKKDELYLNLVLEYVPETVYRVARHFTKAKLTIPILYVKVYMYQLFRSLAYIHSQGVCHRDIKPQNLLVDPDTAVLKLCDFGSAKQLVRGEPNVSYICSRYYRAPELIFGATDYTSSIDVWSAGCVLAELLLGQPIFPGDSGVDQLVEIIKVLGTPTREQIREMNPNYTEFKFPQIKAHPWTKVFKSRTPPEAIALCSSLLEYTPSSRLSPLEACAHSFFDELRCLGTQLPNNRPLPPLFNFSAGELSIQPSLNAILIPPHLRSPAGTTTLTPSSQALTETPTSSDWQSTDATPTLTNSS
Sequence of p38 MAPKα (Q16539 whole entry): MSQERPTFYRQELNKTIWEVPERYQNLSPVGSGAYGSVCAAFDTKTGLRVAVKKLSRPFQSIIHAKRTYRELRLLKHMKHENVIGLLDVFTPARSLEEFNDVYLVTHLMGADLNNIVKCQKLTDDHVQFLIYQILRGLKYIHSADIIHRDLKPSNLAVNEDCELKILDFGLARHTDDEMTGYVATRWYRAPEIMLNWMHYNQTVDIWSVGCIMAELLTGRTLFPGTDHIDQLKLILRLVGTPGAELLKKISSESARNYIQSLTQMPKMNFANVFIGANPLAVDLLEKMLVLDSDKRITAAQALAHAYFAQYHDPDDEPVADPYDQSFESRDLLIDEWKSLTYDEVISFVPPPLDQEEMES
Sequence of c-Src (P12931 whole entry, looked up): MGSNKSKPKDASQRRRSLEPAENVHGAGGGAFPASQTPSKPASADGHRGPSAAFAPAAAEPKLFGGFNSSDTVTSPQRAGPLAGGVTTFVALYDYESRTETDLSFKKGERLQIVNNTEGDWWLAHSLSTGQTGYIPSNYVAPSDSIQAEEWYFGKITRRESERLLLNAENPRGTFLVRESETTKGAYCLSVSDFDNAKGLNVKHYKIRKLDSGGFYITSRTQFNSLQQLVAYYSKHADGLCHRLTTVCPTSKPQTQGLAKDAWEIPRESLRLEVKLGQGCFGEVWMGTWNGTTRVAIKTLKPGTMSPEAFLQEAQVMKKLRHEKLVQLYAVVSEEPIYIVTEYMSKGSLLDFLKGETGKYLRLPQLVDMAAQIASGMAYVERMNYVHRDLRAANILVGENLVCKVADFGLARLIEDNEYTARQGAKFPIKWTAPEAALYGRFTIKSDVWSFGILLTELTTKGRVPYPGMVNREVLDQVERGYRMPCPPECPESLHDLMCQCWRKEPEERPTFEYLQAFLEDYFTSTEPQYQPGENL

In the case of `CC(C)(C)c1cc(NC(=O)Nc2ccc(Oc3ccnc(Nc4cc(C(=O)NCCN5CCOCC5)cc(C(F)(F)F)c4)n3)c3ccccc23)n(-c2cccc(CP(C)(C)=O)c2)n1` [Example 58, 3-((4-((4-(3-(3-(tert-Butyl)-1-(3-((dimethylphosphoryl)methyl)phenyl)-1H-pyrazol-5-yl)-ureido)naphthalen-1-yl)oxy)pyrimidin-2-yl)amino)-N-(2-morpholinoethyl)-5-(trifluoromethyl)benzamide], the IC50 – broadly, the concentration needed to halve the response being measured – against p38 MAPKα was 84 nM; against c-Src, 7 nM; on Syk it was 12 nM; at GSK3α, 689 nM; with PBMCs [1], 1.4 nM; in the assay on PBMCs [2] (IFNγ, read-out: IC50 Values for Inhibition of Cytokine Release, PBMCs IFNγ), 4.8 nM. The IC50 in the assay on PBMCs [2] (setting [3]) is 62.1 nM.
`C[Si](C)(C)c1cc(NC(=O)Nc2ccc(Oc3ccnc(Nc4ccccc4)n3)c3ccccc23)n(-c2cccc(CP(C)(C)=O)c2)n1` [Example 35, 1-(1-(3-((Dimethylphosphoryl)methyl)phenyl)-3-(trimethylsilyl)-1H-pyrazol-5-yl)-3-(4-((2-(phenylamino)pyrimidin-4-yl)oxy)naphthalen-1-yl)urea]: the IC50 on GSK3α worked out at 1270 nM; in the assay on PBMCs [1] it was 7.6 nM; in the assay with PBMCs [2] (setting [3]), 76.8 nM.
With `CN(CCCO)c1nccc(Oc2ccc(NC(=O)Nc3cc(C(C)(C)C)nn3-c3ccc(P(C)(C)=O)cc3)c3ccccc23)n1` [Example 30, 1-(3-(tert-Butyl)-1-(4-(dimethylphosphoryl)phenyl)-1H-pyrazol-5-yl)-3-(4-((2-((3-hydroxy-propyl)(methyl)amino)pyrimidin-4-yl)oxy)naphthalen-1-yl)urea], the 50% inhibitory concentration (IC50) on p38 MAPKα was 27 nM; against c-Src it was 795 nM; on Syk, above 1000 nM; against GSK3α, above 10000 nM; in the assay with PBMCs [1] it was 280 nM.
`CCP(=O)(CC)Cc1cccc(-n2nc(C(C)(C)C)cc2NC(=O)Nc2ccc(Oc3ccnc(Nc4cc(C)c5[nH]ncc5c4)n3)c3ccccc23)c1` [Example 36, 1-(3-(tert-Butyl)-1-(3-((diethylphosphoryl)methyl)phenyl)-1H-pyrazol-5-yl)-3-(4-((2-((7-methyl-1H-indazol-5-yl)amino)pyrimidin-4-yl)oxy)naphthalen-1-yl)urea]: the IC50 on p38 MAPKα worked out at 159 nM; against c-Src it was 8 nM; at Syk, 9 nM; against GSK3α, 3410 nM; in the assay with PBMCs [1], 3.5 nM.
Consider `COc1cc(Nc2cc(Oc3ccc(NC(=O)Nc4cc(C(C)C)nn4-c4cccc(CP(C)(C)=O)c4)c4ccccc34)ccn2)cc(OCCN2CCOCC2)c1` [Example 51, 1-(1-(3-((Dimethylphosphoryl)methyl)phenyl)-3-isopropyl-1H-pyrazol-5-yl)-3-(4-((2-((3-methoxy-5-(2-morpholinoethoxy)phenyl)amino)pyridin-4-yl)oxy)naphthalen-1-yl)urea], for which the IC50 on p38 MAPKα came to 58 nM; at c-Src, 8 nM; on GSK3α it was 2810 nM; with PBMCs [1], 0.5 nM; in the assay with PBMCs [2] (setting [3]) it was 6.1 nM.
Take `CC(C)c1cc(NC(=O)Nc2ccc(Oc3ccnc(Nc4cc(C#N)cc(OCCN5CCOCC5)c4)n3)c3ccccc23)n(-c2cccc(CP(C)(C)=O)c2)n1` [Example 57, 1-(4-((2-((3-cyano-5-(2-morpholinoethoxy)phenyl)amino)pyrimidin-4-yl)oxy)-naphthalen-1-yl)-3-(1-(3-((dimethylphosphoryl)methyl)phenyl)-3-isopropyl-1H-pyrazol-5-yl)urea]: the IC50 against p38 MAPKα is 21 nM; against c-Src, 9 nM; at Syk it was 7 nM; against GSK3α, 1250 nM; with PBMCs [1], 2.7 nM; in the assay with PBMCs [2] (setting [3]), 10.5 nM.
On to `COCCOCCOCCOCCOc1cc(Nc2nccc(Oc3ccc(NC(=O)Nc4cc(C(C)C)nn4-c4cccc(CP(C)(C)=O)c4)c4ccccc34)n2)cc(OC)c1` [Example 52, 1-(4-((2-((3-(2,5,8,11-Tetraoxatridecan-13-yloxy)-5-methoxyphenyl)amino)pyrimidin-4-yl)oxy)naphthalen-1-yl)-3-(1-(3-((dimethylphosphoryl)methyl)phenyl)-3-isopropyl-1H-pyrazol-5-yl)urea], for which the IC50 against p38 MAPKα was determined as 18 nM; on c-Src, 3 nM; on Syk, 4 nM; against GSK3α, 1190 nM; with PBMCs [1], 3.3 nM; in the assay on PBMCs [2] (setting [3]), 11.6 nM.
Take `CCP(=O)(CC)c1ccc(-n2nc(C(C)(C)C)cc2NC(=O)Nc2ccc(Oc3ccnc(Nc4ccccc4)n3)c3ccccc23)cc1` [Example 22, 1-(3-(tert-Butyl)-1-(4-(diethylphosphoryl)phenyl)-1H-pyrazol-5-yl)-3-(4-((2-(phenylamino)-pyrimidin-4-yl)oxy)naphthalen-1-yl)urea]: the IC50 against p38 MAPKα was 67 nM; at c-Src, 9 nM; at Syk, 200 nM; at GSK3α it was 818 nM; in the assay on PBMCs [1] it was 32.8 nM.
Turning to `COc1cc(Nc2cc(Oc3ccc(NC(=O)Nc4cc(C(C)C)nn4-c4cccc(CP(C)(C)=O)c4)c4ccccc34)ccn2)cc(C(=O)NCCN2CCOCC2)c1` [Example 50, 3-((4-((4-(3-(1-(3-((Dimethylphosphoryl)methyl)phenyl)-3-isopropyl-1H-pyrazol-5-yl)-ureido)naphthalen-1-yl)oxy)pyridin-2-yl)amino)-5-methoxy-N-(2-morpholinoethyl)-benzamide], the IC50 against p38 MAPKα came out at 24 nM; at GSK3α it was 2090 nM; with PBMCs [1], 1 nM; in the assay with PBMCs [2] (setting [3]), 16.1 nM.
Take `Cc1cc(Nc2nccc(Oc3ccc(NC(=O)Nc4cc(C(C)C)nn4-c4cccc(CP(C)(C)=O)c4)c4ccccc34)n2)cc2cn[nH]c12` [Example 37, 1-(1-(3-((Dimethylphosphoryl)methyl)phenyl)-3-isopropyl-1H-pyrazol-5-yl)-3-(4-((2-((7-methyl-1H-indazol-5-yl)amino)pyrimidin-4-yl)oxy)naphthalen-1-yl)urea]: the IC50 against p38 MAPKα was determined as 70 nM; on c-Src, 10 nM; on Syk, 5 nM; at GSK3α it was 4860 nM; in the assay with PBMCs [1], 3 nM.
For the compound `Cc1cc(Nc2nccc(Oc3ccc(NC(=O)Nc4cc(C(C)(C)C)nn4-c4ccc(P(C)(C)=O)cc4)c4ccccc34)n2)cc2cn[nH]c12` [Example 21, 1-(3-(tert-Butyl)-1-(4-(dimethylphosphoryl)phenyl)-1H-pyrazol-5-yl)-3-(4-((2-((7-methyl-1H-indazol-5-yl)amino)pyrimidin-4-yl)oxy)naphthalen-1-yl)urea], the IC50 on p38 MAPKα came out at 44 nM; at c-Src, 1 nM; at Syk, 2 nM; at GSK3α, 761 nM; with PBMCs [1], 3.4 nM.

(Values after patent US9796742B2, “Kinase inhibitors” (Respivert Limited, priority 2012, dated 2017).)
